Measured values taken from ChEMBL document CHEMBL1201862, “PubChem BioAssay data set” (2004).
Active and inactive are the calls of the source.

What was measured:
[1] = molecular target: T1, Alkaline phosphatase, tissue-nonspecific isozyme (Homo sapiens, UniProt P05186); test: TNAP enzyme inhibition by screening hits, dose response, selectivity assay for mouse IAP inhibitor project, biochemical, human TNAP, uHTS hits (AID 488906); format: functional
T1 sequence (P05186 whole entry): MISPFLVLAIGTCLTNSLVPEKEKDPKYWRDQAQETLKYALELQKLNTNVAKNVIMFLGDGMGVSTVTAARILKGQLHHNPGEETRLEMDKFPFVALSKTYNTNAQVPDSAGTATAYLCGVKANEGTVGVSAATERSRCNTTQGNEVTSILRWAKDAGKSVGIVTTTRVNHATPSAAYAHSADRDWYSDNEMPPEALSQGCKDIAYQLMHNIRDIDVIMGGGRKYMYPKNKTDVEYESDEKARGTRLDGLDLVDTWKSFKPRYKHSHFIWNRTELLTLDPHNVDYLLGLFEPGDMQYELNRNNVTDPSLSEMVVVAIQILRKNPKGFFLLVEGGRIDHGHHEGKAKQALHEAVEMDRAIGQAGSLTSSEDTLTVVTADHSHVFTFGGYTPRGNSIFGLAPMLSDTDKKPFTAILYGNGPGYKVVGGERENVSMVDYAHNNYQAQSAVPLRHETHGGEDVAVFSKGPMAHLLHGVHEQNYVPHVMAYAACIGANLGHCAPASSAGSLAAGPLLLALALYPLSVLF

Albumin = Albumin (Bos taurus, UniProt P02769); test: Counterscreen for inhibitors of T-cell receptor (TCR)-CD3 interaction: Fluorescence-based biochemical high throughput dose response assay to identify inhibitors of T-cell receptor (TCR)-CD3 interaction using a TAMRA-labeled BSA probe.; format: functional
Large T antigen = Large T antigen (Simian virus 40, UniProt P03070); format: functional, Betapolyomavirus macacae;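 further: Confirmatory-stage PubChem screen for compounds that inhibit SV40 T antigen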
[2] = molecular target: Intestinal-type alkaline phosphatase (Homo sapiens, UniProt P09923); test: inhibition of human intestinal alkaline phosphatase – biochemical, dose response (AID 488876); format: functional
[3] = molecular target: Intestinal-type alkaline phosphatase (Mus musculus, UniProt P24822); test: PubChem AID 488785; format: functional
[4] = molecular target: T2, Histone-lysine N-methyltransferase NSD2 (Homo sapiens, UniProt O96028); format: biochemical
T2 sequence (O96028 whole entry): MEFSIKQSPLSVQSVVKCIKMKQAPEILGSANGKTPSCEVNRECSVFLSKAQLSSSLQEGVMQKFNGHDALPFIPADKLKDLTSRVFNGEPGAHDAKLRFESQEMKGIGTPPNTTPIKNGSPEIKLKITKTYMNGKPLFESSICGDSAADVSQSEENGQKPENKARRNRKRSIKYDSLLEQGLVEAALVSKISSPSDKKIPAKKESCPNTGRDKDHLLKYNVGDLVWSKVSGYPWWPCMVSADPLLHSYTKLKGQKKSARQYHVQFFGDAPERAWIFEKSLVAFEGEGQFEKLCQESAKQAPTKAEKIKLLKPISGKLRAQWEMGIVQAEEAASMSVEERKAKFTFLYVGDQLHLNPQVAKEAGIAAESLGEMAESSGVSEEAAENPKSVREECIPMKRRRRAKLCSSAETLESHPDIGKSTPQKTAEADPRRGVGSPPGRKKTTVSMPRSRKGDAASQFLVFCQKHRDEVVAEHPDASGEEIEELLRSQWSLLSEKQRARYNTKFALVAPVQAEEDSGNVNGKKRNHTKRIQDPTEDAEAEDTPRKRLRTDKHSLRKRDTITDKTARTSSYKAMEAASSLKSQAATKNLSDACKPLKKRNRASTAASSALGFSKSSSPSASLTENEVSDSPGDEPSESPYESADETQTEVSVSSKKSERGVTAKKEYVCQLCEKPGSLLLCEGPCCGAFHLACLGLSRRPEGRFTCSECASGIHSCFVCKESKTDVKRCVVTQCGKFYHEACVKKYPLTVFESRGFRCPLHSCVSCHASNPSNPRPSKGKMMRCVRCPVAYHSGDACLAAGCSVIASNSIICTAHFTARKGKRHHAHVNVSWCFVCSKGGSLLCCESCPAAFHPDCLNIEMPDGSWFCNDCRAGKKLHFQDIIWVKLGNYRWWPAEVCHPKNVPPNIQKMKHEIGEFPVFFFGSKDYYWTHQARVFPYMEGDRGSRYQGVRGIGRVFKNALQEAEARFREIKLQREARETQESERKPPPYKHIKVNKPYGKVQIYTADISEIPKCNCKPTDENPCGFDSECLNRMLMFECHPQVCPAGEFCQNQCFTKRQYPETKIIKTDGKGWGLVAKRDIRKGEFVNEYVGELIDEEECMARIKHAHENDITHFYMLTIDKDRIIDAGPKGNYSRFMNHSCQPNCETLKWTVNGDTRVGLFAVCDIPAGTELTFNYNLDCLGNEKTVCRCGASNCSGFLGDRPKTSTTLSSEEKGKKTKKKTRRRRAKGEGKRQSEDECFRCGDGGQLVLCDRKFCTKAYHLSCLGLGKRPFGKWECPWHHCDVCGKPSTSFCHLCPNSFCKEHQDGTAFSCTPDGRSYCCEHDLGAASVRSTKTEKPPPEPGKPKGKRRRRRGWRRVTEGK

[5] = molecular target: Alkaline phosphatase, placental type (Homo sapiens, UniProt P05187); test: PLAP enzyme inhibitors, confirmation, biochemical, luminescence (AID 1512); format: functional
[6] = molecular target: T1, Alkaline phosphatase, tissue-nonspecific isozyme; test: human TNAP enzyme inhibitors, SAR follow-up, biochemical, luminescent, dose response (AID 1056)
Cytochrome P450 3A4 = Cytochrome P450 3A4 (Homo sapiens, UniProt P08684);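 further: CYP3A4 tested as one member of a cytochrome P450 panel screen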
Cytochrome P450 2C9 = Cytochrome P450 2C9 (Homo sapiens, UniProt P11712)
[7] = molecular target: Glyceraldehyde-3-phosphate dehydrogenase (Homo sapiens, UniProt P04406)
Sequence of Glyceraldehyde-3-phosphate dehydrogenase (P04406 whole entry): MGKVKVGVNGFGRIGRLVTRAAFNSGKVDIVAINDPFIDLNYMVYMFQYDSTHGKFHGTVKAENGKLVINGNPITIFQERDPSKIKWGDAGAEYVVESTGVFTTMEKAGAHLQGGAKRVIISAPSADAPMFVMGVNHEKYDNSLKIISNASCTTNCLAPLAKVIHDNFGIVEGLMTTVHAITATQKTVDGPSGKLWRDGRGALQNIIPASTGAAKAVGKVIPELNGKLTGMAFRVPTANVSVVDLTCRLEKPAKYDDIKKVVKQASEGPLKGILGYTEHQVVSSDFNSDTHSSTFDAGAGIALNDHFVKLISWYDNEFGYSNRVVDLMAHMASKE

Sequence of Alkaline phosphatase, placental type (P05187 whole entry): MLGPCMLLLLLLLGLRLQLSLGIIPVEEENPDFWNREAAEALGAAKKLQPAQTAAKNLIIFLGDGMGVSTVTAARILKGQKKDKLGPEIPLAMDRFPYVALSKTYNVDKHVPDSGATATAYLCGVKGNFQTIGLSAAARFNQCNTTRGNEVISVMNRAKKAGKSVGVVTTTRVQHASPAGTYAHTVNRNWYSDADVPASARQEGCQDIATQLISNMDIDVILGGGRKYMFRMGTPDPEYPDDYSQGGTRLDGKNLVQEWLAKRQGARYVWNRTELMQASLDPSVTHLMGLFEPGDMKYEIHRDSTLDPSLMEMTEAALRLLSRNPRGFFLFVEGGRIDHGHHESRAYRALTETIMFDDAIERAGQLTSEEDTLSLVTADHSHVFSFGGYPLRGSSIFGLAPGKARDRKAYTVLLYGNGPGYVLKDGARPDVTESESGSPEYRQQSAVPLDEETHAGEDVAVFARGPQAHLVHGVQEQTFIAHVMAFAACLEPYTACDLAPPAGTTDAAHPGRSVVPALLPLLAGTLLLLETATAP
Sequence of Cytochrome P450 3A4 (P08684 whole entry): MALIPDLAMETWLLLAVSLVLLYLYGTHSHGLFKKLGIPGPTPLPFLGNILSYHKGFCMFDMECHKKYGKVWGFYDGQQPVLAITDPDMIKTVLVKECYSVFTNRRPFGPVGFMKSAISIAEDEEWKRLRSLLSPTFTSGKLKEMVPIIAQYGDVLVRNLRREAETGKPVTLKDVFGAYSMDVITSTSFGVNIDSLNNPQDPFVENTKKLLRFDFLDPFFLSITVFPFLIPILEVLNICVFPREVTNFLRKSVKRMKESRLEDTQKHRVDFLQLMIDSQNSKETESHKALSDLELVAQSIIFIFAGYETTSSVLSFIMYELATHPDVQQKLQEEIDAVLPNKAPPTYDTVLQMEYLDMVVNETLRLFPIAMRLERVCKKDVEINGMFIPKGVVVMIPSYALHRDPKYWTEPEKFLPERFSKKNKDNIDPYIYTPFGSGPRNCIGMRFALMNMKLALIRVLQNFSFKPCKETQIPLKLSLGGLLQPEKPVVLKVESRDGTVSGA
Sequence of Cytochrome P450 2C9 (P11712 whole entry): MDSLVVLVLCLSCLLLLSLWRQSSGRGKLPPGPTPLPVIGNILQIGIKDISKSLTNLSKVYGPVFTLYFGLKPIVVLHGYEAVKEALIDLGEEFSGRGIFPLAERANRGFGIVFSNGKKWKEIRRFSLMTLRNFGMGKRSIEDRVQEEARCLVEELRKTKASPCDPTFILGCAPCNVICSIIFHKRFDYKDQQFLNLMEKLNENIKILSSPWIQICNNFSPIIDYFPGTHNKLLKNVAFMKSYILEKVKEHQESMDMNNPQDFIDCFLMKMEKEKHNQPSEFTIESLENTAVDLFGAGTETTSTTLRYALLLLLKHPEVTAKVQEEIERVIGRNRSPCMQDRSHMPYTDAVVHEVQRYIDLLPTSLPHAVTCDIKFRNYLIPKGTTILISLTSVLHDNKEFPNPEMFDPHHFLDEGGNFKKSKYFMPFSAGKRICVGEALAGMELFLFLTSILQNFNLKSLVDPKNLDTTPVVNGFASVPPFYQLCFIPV
Sequence of Albumin (P02769 whole entry): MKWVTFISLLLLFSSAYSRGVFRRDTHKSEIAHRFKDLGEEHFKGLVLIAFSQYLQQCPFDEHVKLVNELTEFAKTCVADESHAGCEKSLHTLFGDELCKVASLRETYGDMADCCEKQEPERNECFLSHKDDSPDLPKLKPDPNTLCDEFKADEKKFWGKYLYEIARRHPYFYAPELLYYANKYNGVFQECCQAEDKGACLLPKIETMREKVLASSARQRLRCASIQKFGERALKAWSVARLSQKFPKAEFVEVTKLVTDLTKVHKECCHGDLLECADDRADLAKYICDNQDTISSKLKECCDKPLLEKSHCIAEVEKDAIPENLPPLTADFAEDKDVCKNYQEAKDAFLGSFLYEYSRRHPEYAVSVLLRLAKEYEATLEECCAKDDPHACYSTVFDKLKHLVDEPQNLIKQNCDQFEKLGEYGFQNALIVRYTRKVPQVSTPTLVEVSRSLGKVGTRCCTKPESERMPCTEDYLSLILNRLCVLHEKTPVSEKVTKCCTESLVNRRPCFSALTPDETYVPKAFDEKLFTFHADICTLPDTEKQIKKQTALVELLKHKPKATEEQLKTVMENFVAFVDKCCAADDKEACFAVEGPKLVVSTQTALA
Sequence of Large T antigen (P03070 whole entry): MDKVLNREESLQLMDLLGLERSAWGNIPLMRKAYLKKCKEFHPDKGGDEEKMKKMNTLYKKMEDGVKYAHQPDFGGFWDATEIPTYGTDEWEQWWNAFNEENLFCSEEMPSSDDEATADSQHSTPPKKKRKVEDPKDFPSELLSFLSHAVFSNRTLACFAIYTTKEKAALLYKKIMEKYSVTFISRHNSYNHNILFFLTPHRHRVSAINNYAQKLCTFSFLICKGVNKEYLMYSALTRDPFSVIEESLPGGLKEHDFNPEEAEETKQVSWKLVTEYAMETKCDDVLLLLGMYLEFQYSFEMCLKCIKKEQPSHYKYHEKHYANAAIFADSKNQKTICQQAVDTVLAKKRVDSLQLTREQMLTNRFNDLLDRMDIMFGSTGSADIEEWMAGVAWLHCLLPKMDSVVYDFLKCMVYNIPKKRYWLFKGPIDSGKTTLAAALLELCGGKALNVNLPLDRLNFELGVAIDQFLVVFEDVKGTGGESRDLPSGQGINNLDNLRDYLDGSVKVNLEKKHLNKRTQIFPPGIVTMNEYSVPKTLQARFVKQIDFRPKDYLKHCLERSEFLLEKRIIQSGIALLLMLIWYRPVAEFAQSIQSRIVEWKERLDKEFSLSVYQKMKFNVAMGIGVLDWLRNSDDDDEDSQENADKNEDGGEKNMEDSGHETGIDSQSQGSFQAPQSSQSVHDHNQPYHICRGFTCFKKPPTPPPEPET
Sequence of Intestinal-type alkaline phosphatase (Homo sapiens, UniProt P09923) (P09923 whole entry): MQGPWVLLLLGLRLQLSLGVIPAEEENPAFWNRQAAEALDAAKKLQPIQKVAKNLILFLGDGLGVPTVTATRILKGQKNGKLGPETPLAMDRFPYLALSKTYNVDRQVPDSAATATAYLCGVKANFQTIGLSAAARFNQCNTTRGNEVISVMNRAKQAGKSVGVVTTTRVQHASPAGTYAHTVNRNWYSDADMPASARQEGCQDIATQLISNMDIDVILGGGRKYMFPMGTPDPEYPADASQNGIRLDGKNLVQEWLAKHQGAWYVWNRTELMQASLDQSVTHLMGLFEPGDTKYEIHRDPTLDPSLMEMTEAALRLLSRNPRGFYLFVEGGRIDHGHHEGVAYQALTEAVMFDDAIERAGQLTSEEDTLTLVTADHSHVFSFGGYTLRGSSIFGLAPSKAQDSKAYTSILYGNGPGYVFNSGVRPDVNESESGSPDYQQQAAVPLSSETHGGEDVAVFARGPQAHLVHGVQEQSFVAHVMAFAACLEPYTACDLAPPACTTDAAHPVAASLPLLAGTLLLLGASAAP
Sequence of Intestinal-type alkaline phosphatase (Mus musculus, UniProt P24822) (P24822 whole entry): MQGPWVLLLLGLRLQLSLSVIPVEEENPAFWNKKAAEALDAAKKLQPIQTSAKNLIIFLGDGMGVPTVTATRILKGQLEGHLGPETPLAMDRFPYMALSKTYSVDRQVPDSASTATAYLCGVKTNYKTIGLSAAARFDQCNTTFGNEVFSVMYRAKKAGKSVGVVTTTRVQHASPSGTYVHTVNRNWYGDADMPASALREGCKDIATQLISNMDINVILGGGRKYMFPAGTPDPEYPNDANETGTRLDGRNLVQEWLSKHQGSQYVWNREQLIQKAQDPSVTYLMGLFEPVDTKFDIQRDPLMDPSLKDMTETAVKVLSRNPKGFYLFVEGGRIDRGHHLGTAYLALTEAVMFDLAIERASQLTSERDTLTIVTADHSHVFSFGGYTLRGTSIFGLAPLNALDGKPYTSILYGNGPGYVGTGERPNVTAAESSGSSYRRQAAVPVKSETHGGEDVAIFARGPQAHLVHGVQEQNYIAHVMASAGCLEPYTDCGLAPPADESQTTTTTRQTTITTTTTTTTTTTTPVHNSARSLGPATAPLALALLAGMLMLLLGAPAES

Row | IC50 [5] | IC50 [6] | AC50 (Cytochrome P450 3A4) | IC50 [7] | Structure (SMILES) | other results
1 |  |  |  |  | O=C(Cc1nnc(NC(=O)c2ccccc2)s1)N/N=C\c1ccc(O)c(O)c1 | IC50 [1]: > 100 µM (inactive); IC50 (Albumin): > 94.1 µM (inactive); IC50 (Large T antigen): 20.8 µM (active); IC50 [2]: > 100 µM (inactive); IC50 [3]: 24.6 µM (active); AC50 [4]: 5.23 µM (active)
2 | > 100 µM (inactive) | > 100 µM (inactive) |  |  | COc1ccc(C(=O)CSc2nc(C)cc(C)n2)cc1 | 
3 |  |  | inconclusive |  | CN(C)c1ccnc(-c2ccccc2C(F)(F)F)n1 | 
4 |  |  | inconclusive |  | CCOC(=O)c1c(C)nc2sc3c(=O)n(-c4ccc(C)cc4)cnc3c2c1-c1ccc(OC)cc1 | AC50 (Cytochrome P450 2C9): 0.355 µM (inconclusive)
5 | > 100 µM (inactive) | 4.88 µM (active) |  | > 100 µM (not active) | COC(=O)c1ccccc1NC(=O)CSc1nnc(-c2ccccc2Cl)[nH]1 | 
6 | > 100 µM (inactive) | 0.322 µM (active) |  | > 100 µM (not active) | O=C(c1cc(-c2cc(F)c(Cl)cc2Cl)[nH]n1)N1CCCCC1 | 
